The source of these data is patent US7906540B2, “Non-nucleoside reverse transcriptase inhibitors” (Roche Palo Alto LLC, priority 2007, dated 2011).

Data set [1] has as its system HXB2-strain of HIV. The experiment in a line: Antiviral assay: protection of HIV-infected MT4 cells from virus-mediated cell death (MTT). In kind it is cell-based. Conditions: Human immunodeficiency virus 1, HXB2, MT4, 120 h, read-out: Antiviral Assay IC50. On the procedure: Anti-HIV antiviral activity was assessed using an adaptation of the method of Pauwels et al. (J. Virol. Methods 1988 20:309-321). The method is based on the ability of compounds to protect HIV-infected T lymphoblastoid cells (MT4 cells) from cell-death mediated by the infection. The endpoint of the assay was calculated as the concentration of compound at which the cell viability of the culture was preserved by 50% (‘50% inhibitory concentration’, IC50). The cell viability of a culture was determined by the uptake of soluble, yellow 3-[4,5-dimethylthiazol-2-yl]-2,5-diphenyltetrazolium bromide (MTT) and its reduction to a purple insoluble formazan salt. After solubilization, spectrophotometric methods were employed to measure the amount of formazan product. […]
A fresh solution of 5 mg/mL MTT was prepared in 0.01 M phosphate buffered saline, pH 7.2 and 20 microliters added to each culture. […] When the formazan deposit was fully solubilized by further mixing, the absorbance (OD) of the cultures was measured at 540 nm and 690 nm wavelength (690 nm readings were used as blanks for artifacts between wells). The percent protection for each treated culture was then calculated from the equation: […]

Where a name gives a salt, the structure may show the parent alone.

The term melting point denotes the temperature of the solid-liquid transition. The term IC50 denotes the midpoint of a concentration-inhibition curve.

The molecule `Cn1c(COc2ccc(Cl)cc2C(=O)c2cc(Cl)cc(C#N)c2)n[nH]c1=O` registered a melting point of 210 to 213.9 °C. In turn, `Cn1c(COc2ccc(Br)c(Oc3cc(Cl)cc(C#N)c3)c2)n[nH]c1=O` came in with a melting point of 95.2 to 100.7 °C. `CCc1ccc(OCc2n[nH]c(=O)n2C)c(F)c1Oc1cc(Cl)cc(C#N)c1` had a melting point of 179 to 180 °C. The molecule `Cn1c(COc2ccc(Br)c(F)c2Oc2cc(C#N)cc(C(F)F)c2)n[nH]c1=O` returned a melting point of 193 to 194 °C. Same read-out and setting: to `CCc1ccc(OCc2n[nH]c(=O)n2C)c(Oc2cc(C#N)cc(C(F)F)c2)c1F` belongs 160 to 161 °C; to `Cn1c(CCc2ccc(Br)c(F)c2Oc2cc(Cl)cc(C#N)c2)n[nH]c1=O`, 212.4 to 214.2 °C; to `CCc1cc(C#N)cc(Oc2c(OCc3n[nH]c(=O)n3C)ccc(CC)c2F)c1`, 164 to 166 °C. Still for that read-out and setting: to `CCc1ccc(OCc2n[nH]c(=O)n2C)c(Oc2cc(C#N)cc(C3CC3)c2)c1F` belongs 166 to 168 °C.

For the molecule `Cn1c(COc2ccc(Br)c(F)c2Oc2cc(C#N)cc(CC(F)(F)F)c2)n[nH]c1=O`, the melting point fell in the range of 197.1 to 202.1 °C.

`Cn1c(COc2ccc(Cl)c(Oc3cc(Cl)cc(C#N)c3)c2Cl)n[nH]c1=O` gave a melting point of 224.4 to 225.6 °C.

In turn, `Cn1c(COc2ccc(Cl)cc2Oc2cc(Cl)cc(C#N)c2)n[nH]c1=O` showed a melting point of 176 to 177 °C. As to `Cn1c(COc2ccc(Cl)c(Oc3cc(C#N)cc(C(F)F)c3)c2F)n[nH]c1=O`, the melting point was 184.5 to 185.3 °C. For the molecule `Cn1c(COc2ccc(Br)c(F)c2Oc2cc(Cl)cc(C#N)c2)n[nH]c1=O`, the melting point lay in the range of 192.5 to 193 °C. In turn, `Cn1c(COc2ccc(Br)c(F)c2Oc2cc(C#N)cc(C#N)c2)n[nH]c1=O` came in with a melting point of 205.5 to 207 °C.

The molecule `Cn1c(CCc2ccc(Br)c(Oc3cc(Cl)cc(C#N)c3)c2F)n[nH]c1=O` had a melting point of 186 to 187 °C.

The molecule `Cn1c(COc2ccc(Cl)c(Oc3cc(Cl)cc(C#N)c3)c2F)n[nH]c1=O` (as salt: salt) [Compound I-2, 3-Chloro-5-[6-chloro-2-fluoro-3-(4-methyl-5-oxo-4,5-dihydro-1H-[1,2,4]triazol-3-ylmethoxy)-phenoxy]-benzonitrile; formate salt] yielded a melting point of 221 to 225 °C. For the molecule `Cn1c(COc2ccc(Br)c(Oc3cc(C#N)cc(C(F)F)c3)c2F)n[nH]c1=O` (as salt: salt) [Compound I-4, 3-[6-Bromo-2-fluoro-3-(4-methyl-5-oxo-4,5-dihydro-1H-[1,2,4]triazol-3-ylmethoxy)-phenoxy]-5-difluoromethyl-benzonitrile; trifluoro-acetic acid salt], the melting point lay in the range of 199.2 to 201 °C.

For `Cn1c(COc2ccc(Cl)c(Oc3cc(Cl)cc(C#N)c3)c2F)n[nH]c1=O` [Compound I-2, 3-Chloro-5-[6-chloro-2-fluoro-3-(4-methyl-5-oxo-4,5-dihydro-1H-[1,2,4]triazol-3-ylmethoxy)-phenoxy]-benzonitrile; formate salt], the IC50 in data set [1] came to 1.5 nM. On to `Cn1c(COc2ccc(Br)c(Oc3cc(C#N)cc(C(F)F)c3)c2F)n[nH]c1=O` [Compound I-4, 3-[6-Bromo-2-fluoro-3-(4-methyl-5-oxo-4,5-dihydro-1H-[1,2,4]triazol-3-ylmethoxy)-phenoxy]-5-difluoromethyl-benzonitrile; trifluoro-acetic acid salt], for which, in data set [1], the IC50 was found to be 0.7 nM.
